Experimental data: patent US12491188B2, “Small molecule PARG inhibitors and methods of use thereof” (Board of Regents, The University of Texas System, priority 2019, dated 2025)
Several values for one entry are separate records, joined by “and”; a condition that tells them apart may be missing. Equal entries are not always repeated. Where two headings read alike, the source gives them in different places.

Columns and labels:
human PARG = human PARG (Homo sapiens (Human), UniProt Q86W56); assay: Gel-based PARG activity assay; format: biochemical
Description: FIGS. 9a & 9b show structure-activity relationships (SAR) of compounds from five main chemotypes. (FIG. 9a) A total of 34 representative HTS hits and commercially available analogues from each chemotype (FIG. 7 and FIG. 29) were analyzed using the gel-based PARG activity assay. This gel-based assay directly monitors the change of PARylation status of PARP1 as a substrate of PARG. […] The reaction was quenched after a 30 min incubation at room temperature by adding SDS-PAGE sample buffer. PARylated PARP1C runs as a smear on SDS-PAGE that is reduced to a single band by PARG treatment. […] (FIG. 9b) Quantification of the dose-response PARG inhibition by JA2-3 using the gel-based PARG activity assay. hPARG (1 nM) was preincubated with increasing concentrations (0.032-1 μM) of JA2-3 for 1 hr at room temperature before PARylated PARP1C (500 nM) was added. The reaction was quenched after a 30 min incubation at room temperature. PARylated PARP1C migrates slower than unmodified PARP1C and was quantified using ImageJ. To determine the IC50 value, the dose-response data were plotted as a function of JA2-3 concentration and fitted to the four-parameter logistic equation using SigmaPlot. The rate of the PARG-dependent signal loss in the TR-FRET PAR turnover assay is not equivalent to the steady-state rate of PAR turnover, because the TR-FRET assay can't detect signal loss until the length of PAR chains become shorter than 7 ADP-ribose units. Therefore, the gel-based PARG activity assay to accurately determine the IC50 values throughout the present disclosure.
Gel-based PARG activity assay. PARP1C (2 μM) is enzymatically auto-modified in a reaction containing the PARP1 DBD (2 μM), a 24 mer nicked DNA oligo (2 μM), and NAD+(300 μM) for 1 hr at 37° C., as described previously (Kim et al., 2012). Human PARG^389-976 (1 nM) was pre-incubated with compounds for 1 hr at room temperature. The reaction was initiated by addition of PARylated PARP1 (final concentration of 500 nM) and quenched after 30 min incubation at room temperature by adding SDS-PAGE sample buffer. The gel was visualized by sypro-ruby staining (Kim et al., 2012) and the retained PARylated PARP1C species were quantified using ImageJ (Schneider et al., 2012).
PARylated PARP1C that migrates slower than unmodified PARP1C was quantified. […] The IC50 values were determined by fitting the dose-response data for each compound to a four-parameter logistic equation using SigmaPlot (Systat Software Inc.).
To test specificity of JA2131, human PARG^389-976 (1 nM) was pre-incubated with JA2131 (5, 10, and 20 μM) in the presence and absence of 0.1% Triton-X 100 or 0.1 mg/ml BSA for 1 hr at room temperature. The reaction was initiated, quenched, visualized, and quantified as described above.

rat PARG = rat PARG (Rattus norvegicus (Rat), UniProt Q9QYM2); assay: High-throughput screening with the TR-FRET PAR turnover assay; format: biochemical; details: 6.7 μM compound; 12.5 nM and 25 nM rat PARG
Description: The NCI Diversity Set II library (1,990 compounds) was screened against rat PARG then human PARG was used to validate and optimize PARG inhibitors. The accuracy of the screen was determined by the calculated Z-scores of control reactions, which were between 0.6 and 0.8 throughout the plates, indicative of high reproducibility (FIG. 2a). […] The rate of TR-FRET signal loss in the presence of each candidate inhibitor was compared to that of control reactions containing DMSO only (FIG. 2b). Initially, 104 compounds were selected that inhibited PARG enzymatic activity at both enzyme concentrations. Thirty-nine of these compounds were discarded as they altered fluorescence intensity of donor or acceptor (F520 and F495) by >40% at the first time point. […] For the selected compounds, gel-based assays were performed to directly monitor inhibition of PARP1 dePARylation by PARG (FIG. 2c).
TR-FRET PAR turnover assay. For a high-throughput screening (HTS) of PARG inhibitors, a high-throughput PARG activity assay was developed using the TR-FRET system. Briefly, the fluorescein molecule (FITC) was enzymatically incorporated into PARP1 in a reaction containing PARP1C (2 μM), the PARP1 DBD (2 μM), a 24 mer nicked DNA oligo (2 μM), and a mixture of unlabeled NAD^+ (Sigma) and FITC-NAD^+ (Trevigen) substrates (total NAD+concentration of 100 μM).
After incubation for 1 hr at 37° C., PARylated PARP1 was desalted using a PD-10 desalting column (GE healthcare) in a buffer containing 25 mM Tris-HCl (pH 7.5), 50 mM NaCl, and 0.01% NP-40 and used as the FRET acceptor. The biotin-tagged BRCT1 domain of XRCC1 (BRCT1, 5 nM) was conjugated with an equimolar concentration of Tb^3+-chelated streptavidin (Life Technologies) in TR-FRET assay buffer (FRET donor). […] The reaction was started by the addition of the FRET pair of FITC-labeled PARP1 (42 nM) and Tb^3+-BRCT1 (5 nM). The TR-FRET signal was subsequently monitored for 60 min.
High-throughput screening of PARG inhibitors. Small molecule inhibitors of PARG were identified by high-throughput screening (HTS) using the TR-FRET PAR turnover assay. Compounds (final concentration of 6.7 μM) from the NCI Diversity Set II library (1,990 compounds) were predispensed into black polystyrene 384-well plates (Corning) using a Hummingbird liquid handler (Digilab). Then, 10 μL of rat PARG^385-972 (12.5 nM and 25 nM) was subsequently dispensed into plates using a multi-drop combi nL reagent dispenser (Thermo Scientific), and incubated with compounds for 1 hr at 4° C. The reaction was initiated by the addition of 20 μl of the premixed FRET pair of FITC-labeled PARP1 (42 nM) and Tb^3+-BRCT1 (5 nM), and the TR-FRET signal was monitored every four minutes for 40 min (11 data points). Hits were selected by visually comparing the rate of the TR-FRET signal decrease in each well to that of negative control reactions containing DMSO (FIG. 1b and see Text for details). The HTS was performed at the High-Throughput Screening Core (HTSC) at Washington University School of Medicine.

PARG = details: Falsig et al., 2004; read-out: IC50 of PARG inhibition; cited from earlier work
[1] = Table 1, PARG inhibition, read-out: IC50
[2] = hPARG 1 nM, PARylated PARP1C 500 nM, read-out: IC50 of PARG inhibition
[3] = hPARG 1 nM, PARylated PARP1C 500 nM

rat PARG, sequence (Q9QYM2 385-972): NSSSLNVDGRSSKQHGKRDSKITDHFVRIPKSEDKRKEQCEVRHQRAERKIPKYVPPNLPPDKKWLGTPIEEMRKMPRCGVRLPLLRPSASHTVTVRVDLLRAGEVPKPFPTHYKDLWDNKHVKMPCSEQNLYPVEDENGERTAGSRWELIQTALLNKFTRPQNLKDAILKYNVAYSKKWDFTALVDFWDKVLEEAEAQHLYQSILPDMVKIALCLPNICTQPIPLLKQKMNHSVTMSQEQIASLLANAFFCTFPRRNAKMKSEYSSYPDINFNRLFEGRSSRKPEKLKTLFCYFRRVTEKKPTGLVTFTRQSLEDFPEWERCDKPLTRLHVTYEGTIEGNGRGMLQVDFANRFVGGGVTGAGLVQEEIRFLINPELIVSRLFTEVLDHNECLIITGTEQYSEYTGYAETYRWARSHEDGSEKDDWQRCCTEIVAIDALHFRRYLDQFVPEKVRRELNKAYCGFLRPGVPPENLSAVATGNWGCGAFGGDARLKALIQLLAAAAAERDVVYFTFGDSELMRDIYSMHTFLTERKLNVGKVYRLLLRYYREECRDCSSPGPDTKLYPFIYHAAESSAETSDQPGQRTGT
human PARG, sequence (Q86W56 389-976): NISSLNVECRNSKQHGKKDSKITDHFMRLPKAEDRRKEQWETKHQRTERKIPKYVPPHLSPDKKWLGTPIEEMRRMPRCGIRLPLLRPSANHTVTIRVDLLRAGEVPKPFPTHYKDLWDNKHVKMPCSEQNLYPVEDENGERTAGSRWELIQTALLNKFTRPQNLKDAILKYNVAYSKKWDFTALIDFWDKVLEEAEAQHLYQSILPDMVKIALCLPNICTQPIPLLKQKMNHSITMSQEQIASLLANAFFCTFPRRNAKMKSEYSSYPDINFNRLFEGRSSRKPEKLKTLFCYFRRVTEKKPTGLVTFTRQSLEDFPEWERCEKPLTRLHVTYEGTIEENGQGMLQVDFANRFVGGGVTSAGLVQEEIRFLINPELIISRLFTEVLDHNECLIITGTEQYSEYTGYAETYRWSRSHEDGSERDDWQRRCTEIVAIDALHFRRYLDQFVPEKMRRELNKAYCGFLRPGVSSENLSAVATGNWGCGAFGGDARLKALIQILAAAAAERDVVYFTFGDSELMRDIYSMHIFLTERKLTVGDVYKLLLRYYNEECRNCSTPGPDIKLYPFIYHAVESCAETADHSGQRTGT

Compound | IC50 (human PARG; [1]) [nM] | ~100% PARG inhibition at both 12.5 nM and 25 nM (rat PARG) | also measured
Cn1c(=O)c2[nH]c(SCc3c(Cl)cccc3Cl)nc2n(C)c1=O [LPF-I-68-1] | > 25000 | – | –
Cn1c(=O)c2[nH]c(SCC(=O)OC(C)(C)C)nc2n(C)c1=O [LPF-I-27-1] | > 25000 | – | –
Cn1c(=O)c2[nH]c(SCCN3C(=O)c4ccccc4C3=O)nc2n(C)c1=O [LPF-I-81-1] | > 25000 | – | –
CCOC(=O)CCSc1nc2c([nH]1)c(=O)n(C)c(=O)n2C [LPF-I-83-1] | > 25000 | – | –
Cc1ccc(CSc2nc3c([nH]2)c(=O)n(C)c(=O)n3C)cc1 [LPF-I-64-1] | > 25000 | – | –
FC(F)(F)c1nc2ccc(SSc3ccc4nc(C(F)(F)F)[nH]c4c3)cc2[nH]1 [Compound 659162] | – | Yes | –
Cn1c(=O)c2c(ncn2CCCC(=O)O)n(C)c1=O [JA2-9] | > 100000 | – | –
O=C1C(Cl)=C(Nc2ccc(S(=O)(=O)Nc3ccccn3)cc2)C(=O)c2ccccc21 [Compound 45382] | – | Yes | –
Cn1c(=O)c2[nH]c(CCCC(=O)O)nc2n(C)c1=O [JA2-2] | > 100000 | – | –
O=C1C=CC(=Nc2cccc3c(N=C4C=CC(=O)O4)cccc23)O1 [Compound 69575] | – | Yes | –
Cc1ccc(C2=C(Cl)C(=O)C(c3ccc(C)cc3)=C(Cl)C2=O)cc1 [Compound 121838] | – | Yes | –
Cn1c(=O)[nH]c2nc(SCCN3CCOCC3)[nH]c2c1=O [JA2120] | 25700 | – | IC50 (human PARG; [2]): 25700 nM
O=c1[nH]c2[nH]c(=S)[nH]c(=S)c2[nH]1 [JA2-3] | 100 | Yes | IC50 of PARG inhibition (human PARG; [3]): sub-micromolar; IC50 (human PARG; [2]): 100 to 1000 nM
CCC(=O)OCN1C(=O)C=CC1=O [Compound 19630] | – | Yes | –
Cn1c(=O)c2[nH]c(SCCN3CCOCC3)nc2n(C)c1=S [JA2-5] | 1000 | Yes | IC50 of PARG inhibition (human PARG; [3]): sub-micromolar; IC50 (human PARG; [2]): 100 to 1000 nM
O=c1[nH][nH]c(=S)c(=O)[nH]1 [Compound 107684] | – | Yes | –
O=C(OC[C@H]1O[C@@H](OC(=O)c2cc(O)c(O)c(OC(=O)c3cc(O)c(O)c(O)c3)c2)[C@H](OC(=O)c2cc(O)c(O)c(OC(=O)c3cc(O)c(O)c(O)c3)c2)[C@@H](OC(=O)c2cc(O)c(O)c(OC(=O)c3cc(O)c(O)c(O)c3)c2)[C@@H]1OC(=O)c1cc(O)c(O)c(OC(=O)c2cc(O)c(O)c(O)c2)c1)c1cc(O)c(O)c(OC(=O)c2cc(O)c(O)c(O)c2)c1 [Gallotannin] | – | – | IC50 (PARG): < 5000 nM
O=S(=O)(O)c1cc(O)c2c(N=Cc3ccccc3O)cc(S(=O)(=O)O)cc2c1 [Compound 88947] | – | Yes | –
Cc1cc(N)c2cc(OCCOc3ccc4nc(C)cc(N)c4c3)ccc2n1 [Compound 22907] | – | Yes | –
Cn1c(=O)c2[nH]c(SCc3ccc(F)cc3)nc2n(C)c1=O [LPF-I-53-1] | 65000 | – | –
Cc1cc(O)c(-c2cc(O)c(C)cc2O)cc1O [Compound 2805] | – | Yes | –
Cn1c(=O)c2[nH]c(SCc3ccccc3)nc2n(C)c1=O [LPF-I-51-1] | > 25000 | – | –
CCOC(=O)CSc1nc2c([nH]1)c(=O)n(C)c(=O)n2C [LPF-I-35-1] | > 25000 | – | –
O=[N+]([O-])c1ccc(S(=O)(=O)Cc2ccccc2)c2nonc12 [Compound 228148] | – | Yes | –
Cn1c(=S)c2[nH]c(SCCN3CCOCC3)nc2n(C)c1=O [LPF-I-146-1] | 400 | – | –
Cn1c(=S)[nH]c2nc(SCCN3CCCC3)[nH]c2c1=O [JA2-4] | 900 | – | IC50 of PARG inhibition (human PARG; [3]): sub-micromolar; IC50 (human PARG; [2]): 100 to 1000 nM and 900 nM
